Laboratory results reported in patent publication US9233920B2, “Process for the preparation of dihydropyrrole derivatives” (Syngenta Participations AG, priority 2010, dated 2016).

Tests used:
Format in all cases: in vivo
[1] = test system: Thrips tabaci; experiment: Thrips tabaci (onion thrips) sunflower leaf disc spray test; settings: Thrips tabaci mixed ages on sunflower leaf discs, 7 days incubation, mortality
Description: (§1) These examples illustrate the comparative insecticidal and acaricidal properties of compounds A23 and A24. The tests were performed as follows:
Thrips tabaci (Onion Thrips):
[…] After drying, the leaf discs were infested with an […] population of mixed ages. After an incubation period of 7 days, samples were checked for mortality.

[2] = test system: Heliothis virescens; experiment: Heliothis virescens (tobacco budworm) egg/larval test on artificial diet in 24-well microtiter plate; settings: Heliothis virescens eggs 0-24 h old, 4 days incubation, egg mortality, larval mortality, growth regulation
Description: as §1
Heliothis virescens (Tobacco Budworm):
Eggs (0-24 h old) were placed in 24-well microtiter plate on artificial diet and treated with test solutions at an application rate of 12.5 ppm (concentration in well 18 ppm) by pipetting. After an incubation period of 4 days, samples were checked for egg mortality, larval mortality, and growth regulation.

[3] = test system: Diabrotica balteata; experiment: Diabrotica balteata (corn root worm) L2 larvae test on artificial diet in 24-well microtiter plate; settings: 5 days incubation, larval mortality and growth regulation
Description: as §1
Diabrotica balteata (Corn Root Worm):
A 24-well microtiter plate (MTP) with artificial diet was treated with test solutions at an application rate of 12.5 ppm (concentration in well 18 ppm) by pipetting. After drying, the MTP's were infested with L2 larvae (6-10 per well). After an incubation period of 5 days, samples were checked for larval mortality and growth regulation.

With `Cc1cc(C2=NC[C@@](c3cc(Cl)cc(Cl)c3)(C(F)(F)F)C2)ccc1C(=O)NC1CS(=O)(=O)C1` [Compound A23, 4-[(3R)-3-(3,5-dichlorophenyl)-3-(trifluoromethyl)-2,4-dihydropyrrol-5-yl]-N-(1,1-dioxothietan-3-yl)-2-methyl-benzamide] the “% Control at 12.5 ppm” value [1] was 100%, the “% Control at 200 ppm” value [1] was 100% and the “% Control at 12.5 ppm” value [2] was 100%. For the same compound, the “% Control at 200 ppm” value [2] was 100%, the “% Control at 12.5 ppm” value [3] was 100% and the “% Control at 200 ppm” value [3] was 100%.
With `Cc1cc(C2=NC[C@](c3cc(Cl)cc(Cl)c3)(C(F)(F)F)C2)ccc1C(=O)NC1CS(=O)(=O)C1` [Compound A24, 4-[(3S)-3-(3,5-dichlorophenyl)-3-(trifluoromethyl)-2,4-dihydropyrrol-5-yl]-N-(1,1-dioxothietan-3-yl)-2-methyl-benzamide] the “% Control at 12.5 ppm” value [1] was 40%, the “% Control at 200 ppm” value [1] was 100% and the “% Control at 12.5 ppm” value [2] was 50%. The “% Control at 200 ppm” value [2] was 100%, the “% Control at 12.5 ppm” value [3] was 0% and the “% Control at 200 ppm” value [3] was 100%.
